Assay results from patent US20200138829A1, “METHODS OF CANCER TREATMENT” (Ferro Therapeutics, Inc., priority 2017, published 2020).
Counter-ions that a name gives are not always drawn. Like-named read-outs stand apart in the source and are kept apart here. * marks the point of attachment. Cbz = O=C(OCc1ccccc1)*; CH2F = FC*

Tests used:
Panc2.13 cells [1] = test: Combination proliferation assay with PKC activator, Panc2.13; assay type: cell-based
Procedure: (§1) Cell viability assay was performed to assess the potency of the ferroptosis inducer compounds in various cancer cell lines with K-Ras mutations. Cells at a density of 1,000-10,000 cells/well were seeded in 96-well plates and incubated at 37° C. overnight. A series of 9 different concentrations of compound stocks (500×) were created by 3-fold serial dilution in DMSO. These compounds were further diluted in culture media and then added to cells so that the final DMSO concentration was equal to 0.25% or less. After 96 hours of incubation, 50 μL of CellTiter Glo reagent (Promega) was added to each well and luminescence was measured after 10 minutes using EnVision (PerkinElmer). K101A (a PKC activator) was used as the reference compound titrated from top concentration of 30 μM. All compounds were tested initially from 30 μM as the top concentration in duplicates (range of 4.6 nM-30 μM). […] Data was analyzed using XL-fit software (ID Business Solutions Ltd.). IC50, relative IC50, or % of top inhibition was calculated.
(§2) Therefore, whether PKC activators synergize or antagonize with ferroptosis inducers can be tested empirically.

[2] = tested on: A549 lung cancer cell line; test: Cell viability assay (CellTiter Glo), A549; assay type: cell-based
Procedure: (§3) Cell viability assay was performed to assess the potency of the ferroptosis inducer compounds in various cancer cell lines with K-Ras mutations. […] A series of 9 different concentrations of compound stocks (500×) were created by 3-fold serial dilution in DMSO. […] After 96 hours of incubation, 50 μL of CellTiter Glo reagent (Promega) was added to each well and luminescence was measured after 10 minutes using EnVision (PerkinElmer). […] […] IC50, relative IC50, or % of top inhibition was calculated.

[3] = tested on: KP-4 pancreatic cancer cell line; test: Cell viability assay (CellTiter Glo), KP-4; assay type: cell-based; conditions: for selectivity for KP-4 over A549: KP-4 versus A549
Procedure: as §3

PSN-1 cells [4] = test: Combination proliferation assay with PKC activator, PSN-1; assay type: cell-based
Procedure: as §1, §2

Panc1 cells = test: Combination proliferation assay with PKC activator, Panc1; assay type: cell-based
Procedure: as §1, §2

[5] = tested on: MiaPaCa-2 pancreatic cancer cell line; test: Cell viability assay (CellTiter Glo), MiaPaCa-2; assay type: cell-based; conditions: Homo sapiens, MIA PaCa-2, 96 hours of incubation
Procedure: as §3

Capan-1 cells [6] = test: Combination proliferation assay with PKC activator, Capan-1; assay type: cell-based
Procedure: as §1, §2

KP-4 cells [7] = test: Combination proliferation assay with PKC activator, KP-4; assay type: cell-based
Procedure: as §1, §2

Namalwa cell line = test: Combination proliferation assay with PKC activator, Namalwa; assay type: cell-based
Procedure: as §1, §2
(§4) Therefore, it is of interest to test combination treatment of both classes of compounds in lymphoma cells.

A549 cells [8] = test: Combination proliferation assay with PKC activator, A549; assay type: cell-based; conditions: inducer at concentration with minimal or no effect alone
Procedure: as §1, §2

[9] = tested on: K-RAS mutant pancreatic cell lines; test: Cell viability assay, several pancreatic cell lines compared with A549; assay type: cell-based; conditions: for potency in the pancreatic cell lines relative to A549 (in words): MiaPaCa-2 and KP-4 versus A549
Procedure: (§5) Cell viability assay was performed to assess the potency of the ferroptosis inducer compounds in various cancer cell lines with K-Ras mutations. […] A series of 9 different concentrations of compound stocks (500×) were created by 3-fold serial dilution in DMSO. […] After 96 hours of incubation, 50 μL of CellTiter Glo reagent (Promega) was added to each well and luminescence was measured after 10 minutes using EnVision (PerkinElmer). […] IC50, relative IC50, or % of top inhibition was calculated. Next, RSL3, ML210, Erastin, and Auranofin were tested on additional K-RAS mutant pancreatic cell lines (Panc1, Panc6.03, Panc2.13, PSN-1, and Capan-1) in Table 1.

[10] = tested on: A549, MiaPaCa-2, and KP-4; test: Cell viability assay, comparison across A549, MiaPaCa-2 and KP-4; assay type: cell-based; conditions: single agent
Procedure: as §1

KP-4 cells [11] = test: Effect of ferroptosis or apoptosis inhibitor on RSL3- or Erastin-induced cell death, KP-4; conditions: KP-4; for effect on cell death induced by RSL3 or Erastin: co-treatment
Procedure: as §1
Ferroptosis inhibitors include: Ferrostatin-1 and Liproxstatin-1, inhibitors of ROS accumulation; Deferoxamine, an iron chelator; and PD146176, a 15-lipoxygenase inhibitor (see, e.g., Hofman et al., 2016, J Med Chem. March 10; 59(5):2041-53; Yang et al., 2016 Cell 26(3):165-176). The apoptosis inhibitor chosen was ZVAD (see, e.g. Wu et al., 2011, Cell Death and Differentiation 18:26-37). Ferroptosis inhibitors and ZVAD were first titrated as a single agent as shown in Example 1.

Capan-1 cells [12] = test: Cell viability assay (CellTiter Glo), Capan-1; assay type: cell-based
Procedure: as §5

PSN-1 cells [13] = test: Cell viability assay (CellTiter Glo), PSN-1; assay type: cell-based; conditions: PSN-1; 96 hours of incubation
Procedure: as §5

A549 cells [14] = test: Effect of ferroptosis or apoptosis inhibitor on RSL3- or Erastin-induced cell death, A549; conditions: A549; ZVAD
Procedure: as §1
Ferroptosis inhibitors include: Ferrostatin-1 and Liproxstatin-1, inhibitors of ROS accumulation; Deferoxamine, an iron chelator; and PD146176, a 15-lipoxygenase inhibitor (see, e.g., Hofman et al., 2016, J Med Chem. March 10; 59(5):2041-53; Yang et al., 2016 Cell 26(3):165-176). […]

Mino cell line = test: Combination proliferation assay with PKC activator, Mino; assay type: cell-based
Procedure: as §1, §2, §4

Panc2.13 cells [15] = test: Cell viability assay (CellTiter Glo), Panc2.13; assay type: cell-based; conditions: Panc2.13 versus A549
Procedure: as §5

COC(=O)c1ccc([C@H]2c3[nH]c4ccccc4c3C[C@H](C(=O)OC)N2C(=O)CCl)cc1 [RSL3]
% of top inhibition by K101A or K102 in combination with the ferroptosis inducer (Panc2.13 cells [1]): ~80% | effect on the potency of K101A or K102 (Panc2.13 cells [1]): increased the potency | synergy with K101A or K102 to block proliferation (Panc2.13 cells [1]): synergized | IC50 ([2]; Homo sapiens, A549 lung cancer cell line, 96 hours of incubation): 1880 nM | IC50 ([3]; Pancreatic cancer cell, KP-4, 96 hours of incubation): 2 nM | synergy with K101A (PKC activators) to block proliferation (PSN-1 cells [4]): synergized | effect on the potency of K101A or K102 (Panc1 cells): increasing the potency | synergy with K101A or K102 to block proliferation (Panc1 cells): synergized | IC50 [5]: 8 nM | % of top inhibition by K101A or K102 in combination with the ferroptosis inducer (Capan-1 cells [6]): ~80% | effect on the potency of K101A or K102 (Capan-1 cells [6]): increased the potency | synergy with K101A or K102 to block proliferation (Capan-1 cells [6]): synergized strongly | synergy when combined with K101A or K102 (KP-4 cells [7]): only additive effects | effect of addition to K101A or K102 on potency and % of top inhibition (Namalwa cell line): improved potency and % of top inhibition | synergy with K101A or K102 to block proliferation (A549 cells [8]): synergized strongly | potency in the pancreatic cell lines relative to A549 (in words) [9]: two to three orders of magnitude more potent | selective cell death in comparison to A549 ([9]; range over all five lines Panc1, Panc6.03, Panc2.13, PSN-1, Capan-1): 2-26 fold

C/C=C(/C)C(=O)O[C@H]1C(C)=C[C@]23C(=O)[C@@H](C=C(CO)[C@@H](O)[C@]12O)[C@H]1[C@@H](C[C@H]3C)C1(C)C [K102, ingenol-3-angelate]
% of top inhibition by K101A or K102 without ferroptosis inducer (Panc2.13 cells [1]): ~60%

C=CCNc1nc(NCC=C)nc(N2CCN(C(c3ccc(F)cc3)c3ccc(F)cc3)CC2)n1 [Almitrine]
potency of inhibition of A549 cells (in words) [2]: very weak inhibitors

C[C@H]1[C@H](OC(=O)CCC(=O)O)O[C@@H]2O[C@@]3(C)CC[C@H]4[C@H](C)CC[C@@H]1[C@@]24OO3 [Artesunate]
synergy when combined with K101A or K102 (KP-4 cells [7]): moderate/minor synergy

CCOC(=O)c1ccc(NC2CCCCC2)c(N)c1 [Ferrostatin-1]
differential activity among three cell lines [10]: do not show differential activity | potency in blocking cell proliferation (in words) [10]: not potent | effect on cell death induced by RSL3 or Erastin (KP-4 cells [11]; Ferrostatin-1 at 3 μM): completely abrogated cell death

Dihydroartemisinin
IC50 (Capan-1 cells [12]; Capan-1, 96 hours of incubation): 2150 nM | synergy with K101A (PKC activators) to block proliferation (PSN-1 cells [4]): no synergy | synergy when combined with K101A or K102 (KP-4 cells [7]): moderate/minor synergy | IC50 (PSN-1 cells [13]): 540 nM

Cbz-Val-Ala-Asp-CH2F
effect on RSL3- or Erastin-induced cell death (A549 cells [14]): did not rescue | differential activity among three cell lines [10]: do not show differential activity | potency in blocking cell proliferation (in words) [10]: not potent | effect on RSL3- or Erastin-induced cell death (KP-4 cells [11]; ZVAD at 30 μM): did not rescue

CC[P](CC)(CC)=[Au][S]C1OC(COC(C)=O)C(OC(C)=O)C(CC(C)=O)C1OC(C)=O (stereo not shown)
synergy with K101A or K102 to block proliferation (Panc2.13 cells [1]): did not synergize | synergy with K101A or K102 to block proliferation (Panc1 cells; inducer up to 1 μM): No synergistic effects | synergy with K101A or K102 to block proliferation (Capan-1 cells [6]): did not synergize | synergy when combined with K101A or K102 (KP-4 cells [7]): no synergy | synergy when combined with K101A or K102 (Mino cell line): moderate synergy | synergy when combined with K101A or K102 (Namalwa cell line): minor synergy | synergy with K101A or K102 to block proliferation (A549 cells [8]): No synergy

CC(=O)N(O)CCCCCNC(=O)CCC(=O)N(O)CCCCCNC(=O)CCC(=O)N(O)CCCCCN [Deferoxamine mesylate]
differential activity among three cell lines [10]: do not show differential activity | potency in blocking cell proliferation (in words) [10]: not potent | effect on RSL3- or Erastin-induced cell death (KP-4 cells [11]; Deferoxamine): did not rescue

O=C(O)c1cc(/N=N/c2ccc(S(=O)(=O)Nc3ccccn3)cc2)ccc1O [Sulfasalazine]
synergy with K101A or K102 to block proliferation (Panc2.13 cells [1]): did not synergize | synergy with K101A or K102 to block proliferation (A549 cells [8]): No synergy

CO[C@H]1O[C@@H]2O[C@@]3(C)CC[C@H]4[C@H](C)CC[C@@H]([C@H]1C)[C@@]24OO3 [Artemether]
selectivity for KP-4 over A549 [3]: > 5 fold

Cc1onc(C(=O)N2CCN(C(c3ccc(Cl)cc3)c3ccc(Cl)cc3)CC2)c1[N+](=O)[O-] [ML210]
selectivity in comparison to A549 (Capan-1 cells [12]; Capan-1 versus A549): no selectivity | % of top inhibition by K101A or K102 in combination with the ferroptosis inducer (Panc2.13 cells [1]): ~80% | effect on the potency of K101A or K102 (Panc2.13 cells [1]): increased the potency | synergy with K101A or K102 to block proliferation (Panc2.13 cells [1]): synergized | selectivity in comparison to A549 (Panc2.13 cells [15]): no selectivity | synergy with K101A (PKC activators) to block proliferation (PSN-1 cells [4]): synergized | effect on the potency of K101A or K102 (Panc1 cells): increasing the potency | synergy with K101A or K102 to block proliferation (Panc1 cells): synergized | % of top inhibition by K101A or K102 in combination with the ferroptosis inducer (Capan-1 cells [6]): ~80% | effect on the potency of K101A or K102 (Capan-1 cells [6]): increased the potency | synergy with K101A or K102 to block proliferation (Capan-1 cells [6]): synergized strongly | synergy when combined with K101A or K102 (KP-4 cells [7]): no synergy | synergy when combined with K101A or K102 (Mino cell line): minor synergy | synergy with K101A or K102 to block proliferation (A549 cells [8]): minor synergy | potency in the pancreatic cell lines relative to A549 (in words) [9]: at least two orders of magnitude more potent | sensitivity in comparison to A549 ([9]; range over Panc1, Panc6.03, and PSN-1): 8-30 fold

Buthionine sulfoximine [BSO]
effect on A549 cells ([2]; at very high concentration (>1 mM)): minimal effects

COc1ccc(N(C(=O)CCl)C(C(=O)NCCc2ccccc2)c2cccs2)cc1Cl (stereo not shown) [ML162]
selectivity for KP-4 over A549 [3]: > 80 fold

CN(C)c1nc(N(C)C)nc(N(C)C)n1 [Altretamine]
potency of inhibition of A549 cells (in words) [2]: very weak inhibitors

c1ccc2c(c1)SCc1c-2[nH]c2ccccc12 [PD146176]
differential activity among three cell lines [10]: do not show differential activity | potency in blocking cell proliferation (in words) [10]: not potent | effect on RSL3- or Erastin-induced cell death (KP-4 cells [11]; PD146176 at 0.504): partially reversed

CC(=O)O[C@@]12C[C@@H](C)[C@@]3(O)[C@@H](C=C(CO)C[C@]4(O)C(=O)C(C)=C[C@@H]34)[C@@H]1C2(C)C [K101A, 12-deoxyphorbol 13-acetate]
% of top inhibition by K101A or K102 without ferroptosis inducer (Panc2.13 cells [1]): ~60%

Clc1cccc(CN=C2Nc3ccccc3NC23CCNCC3)c1 [Liproxstatin-1]
differential activity among three cell lines [10]: do not show differential activity | potency in blocking cell proliferation (in words) [10]: not potent | effect on cell death induced by RSL3 or Erastin (KP-4 cells [11]; Liproxstatin-1 at 304): completely abrogated cell death
